Experimental findings from the NIST ThermoML archive (doi:10.1016/j.jct.2013.11.028) are described below.

± gives the expanded uncertainty stated by the source.

A short description of data set [1]: refractive index (Na D-line) (dimensionless). Particulars: 298.2 K; 101.33 kPa; Liquid; Standard Abbe refractometry.
The conditions of data set [2]: 298.2 K; 101.33 kPa; Liquid; Vibrating tube method.

Take `CC(C)CCO` [3-methylbutan-1-ol]: the refractive index in data set [1] turned out to be 1.4085 ± 0.0008. In addition, in data set [2], the mass density came to 809.05 ± 0.4 kg/m3.
Turning to `CCCCO` [butan-1-ol], in data set [1], the refractive index is listed as 1.3968 ± 0.0008. Besides, in data set [2], the mass density turned out to be 805.6 ± 0.24 kg/m3.
Turning to `CCCC(=O)O` [butanoic acid], the refractive index in data set [1] is given as 1.3977 ± 0.0008. Moreover, the mass density in data set [2] is given as 952.68 ± 0.23 kg/m3.
In the case of `CCCCCO` [pentan-1-ol], the refractive index in data set [1] turned out to be 1.4073 ± 0.0008. In addition, in data set [2], the mass density came to 810.92 ± 0.24 kg/m3.
`O` [water]: the refractive index in data set [1] is 1.3325 ± 0.0008.
